According to a melting point compilation (Tetko et al.; mined from patent text by program, amines drawn as free bases though some values may be those of a salt):

First: Cc1cc(NC(=O)C(=O)N(C)C)cc(C)c1S(=O)(=O)C[N+](=O)[O-]
Second: Cc1cn(C(C)(C)C(=O)N(C)C)nc1-c1ccccc1F
The melting point of the first is higher: 171 to 172 °C for the first, 112 to 114 °C for the second.

First: CCOC(=O)/C=C/c1ccc(NC(=O)c2csc(NC(=O)NCc3ccccc3)n2)cc1
Second: Cc1ccc2nc(C(O)[C@H](C)NC(=O)OCc3ccccc3)oc2c1 (stereo partly specified)
The melting point of the first is higher: 207 °C for the first, 108 to 109 °C for the second.

First: NC(=O)c1ccc([N+](=O)[O-])c(CN2C(=O)c3ccccc3C2=O)c1
Second: CCOc1ccccc1-c1ccc(C(N)=O)c(=O)[nH]1
The melting point of the first is lower: 100 to 124 °C for the first, 218 to 220 °C for the second.

First: CC(C)(C)C(=O)Nc1c(F)cc(F)cc1Oc1ccc(C2(C#N)CCCC2)cc1
Second: CS(=O)(=O)Nc1ccc(NC(=O)c2c[nH]c(=S)n2C2CCc3c(F)cc(F)cc3C2)cc1 (stereo unspecified)
The melting point of the first is lower: 103 to 105 °C for the first, 225 to 230 °C for the second.

First: CC=CC(=O)Nc1n[nH]c2cc(Br)ccc12
Second: CC(=O)N1CCC(c2n[nH]c3cc(Cl)ccc23)CC1
The melting point of the first is higher: 232 °C for the first, 172 to 174 °C for the second.

First: CC(C)Cn1c(CO)c(OCCCC(F)(F)F)c2cc(OCc3ccccc3)ccc2c1=O
Second: N=c1sc2cc(OC(F)(F)F)ccc2n1CCSCCCC(=O)c1ccccc1
The melting point of the first is higher: 112 to 113 °C for the first, 72 °C for the second.

Compared with `O=c1c(Cl)c(Cl)cnn1C1CCCCO1` (stereo unspecified), `CC1(C2CCCC2)Cc2cc(O)c(Cl)c(Cl)c2C1=O` (stereo unspecified) is higher in melting point: 74 to 76 °C for the first, 190 to 194 °C for the second.

Compared with `O=C(NCCO)c1cnc(-c2ccccc2)s1`, `Cc1sc(-c2ccccc2)nc1COc1ccc(CCl)cc1` is lower in melting point: 149 to 152 °C for the first, 100 to 101 °C for the second.

First: CC(C)(C#N)ON1C(C)(C)CNC(=O)CC1(C)C
Second: COC(=O)C(C)(C)S(=O)(=O)N1CC=C(c2ccc(Br)c(C)c2)CC1
The melting point of the first is higher: 130 to 134 °C for the first, 100 to 101 °C for the second.

First: COC(=O)c1nc2ccc(C=O)cc2cc1C
Second: CCOC(=O)c1c(Cl)c2ccc(C)nc2n(C)c1=O
The melting point of the first is higher: 118 to 121 °C for the first, 108 to 111 °C for the second.

First: Cc1cc(-c2nnc3cc(C(C)(C)C)c(OCc4ncn(C)n4)nn23)no1
Second: Cc1cc(CCCCCOc2c(C)cc(-c3nnn(CCO)n3)cc2C)on1
The melting point of the first is higher: 221 to 223 °C for the first, 69 to 70 °C for the second.

Compared with `c1ccc(N(c2ccccc2)c2ccc3c4c(cccc24)CC3)cc1`, `OCc1cc(N(c2ccccc2)c2ccccc2)c(CO)cc1N(c1ccccc1)c1ccccc1` is higher in melting point: 168 to 170 °C for the first, 208 to 210 °C for the second.

First: Cc1nc(N2CCN(CC(C)C)C2=O)sc1C(=O)NCc1ccn(C)n1
Second: CCOc1ccc(C(=O)NCc2ccc3c(c2)C(=O)N(C2(C)CCC(=O)NC2=O)C3=O)nn1 (stereo unspecified)
The melting point of the first is higher: 158 to 161 °C for the first, 126 to 128 °C for the second.

First: COc1cccc(-c2ccc3cc(OC)ccc3c2Oc2ccc(O)cc2)c1
Second: COc1cc(OC)cc(-c2ncn(-c3cc(OC)c(OC)c(OC)c3)c2-c2ccc(N(C)C)cc2)c1
The melting point of the first is lower: 125 to 126 °C for the first, 151 to 154 °C for the second.

Compared with `Cn1cc(-c2cc3cccnc3[nH]2)c2cc(NS(C)(=O)=O)ccc21`, `COc1ccc(S(=O)(=O)Nc2ccc(C)cc2)c2c1[nH]c1ccccc12` is lower in melting point: 223 to 224 °C for the first, 199 to 203 °C for the second.

First: Cc1c(Br)c2cnnc(OCc3ccccc3)c2n1Cc1ccccc1
Second: Cc1cc2c(o1)c(-c1ccc(COC(=O)CCC(=O)O)o1)nn2Cc1ccccc1
The melting point of the first is lower: 122 to 123 °C for the first, 126 to 129 °C for the second.

First: O=C(O)CC(O)c1ccc(-c2ccccc2Cl)o1 (stereo unspecified)
Second: Cc1[nH]cc(C#N)c1-c1ccc(Cl)cc1C(=O)c1ccccc1Cl
The melting point of the first is lower: 53 to 55 °C for the first, 206 to 208 °C for the second.

Compared with `COc1ccc(/C=C/C(=O)Nc2ccccc2C(=O)OCC(=O)OC(C)(C)C)cc1OC`, `CCOC(=O)COc1ccc(NC(=O)OC(C)(C)C)cc1Cl` is higher in melting point: 116 to 118 °C for the first, 119 to 120 °C for the second.

First: N#Cc1cccc(Cc2ccccc2C=NC(c2ccccc2)c2ccccc2)c1
Second: OP(O)C1(NC(c2ccccc2)c2ccccc2)CCCC1
The melting point of the first is lower: 113 to 115 °C for the first, 204 to 205 °C for the second.

First: COc1cc(N2CCN(C[C@@H](O)CO)CC2)ccc1Nc1ncc2ccc(-c3cc(Cl)ccc3OC)n2n1
Second: COc1ccc(CC2Cc3cccc(-c4cccc(C(=O)NCCN5CCCC5)c4)c3O2)cc1OC (stereo unspecified)
The melting point of the first is lower: 101 to 104 °C for the first, 134 to 135 °C for the second.

First: CC(=O)Nc1sc(-c2ccc(F)cc2)cc1C(N)=O
Second: Cc1cc2c(OCc3ccc(-c4nnn[nH]4)cc3)cccc2o1
The melting point of the first is higher: 230 to 233 °C for the first, 196 to 197 °C for the second.

Compared with `CCn1c(=O)c2cc(O)c(O)cc2c2cc(O)c(O)cc21`, `CCn1c(=O)ccc2ccccc21` is lower in melting point: 309 to 310 °C for the first, 52 to 54 °C for the second.

First: Cc1ccc(S(=O)(=O)Nc2nc(-c3cccc(C#N)c3)cs2)cc1
Second: Cc1ccc(S(=O)(=O)OC[C@@H](O)Cc2cc3ccccc3[nH]2)cc1
The melting point of the first is higher: over 250 °C for the first, 96 to 97 °C for the second.

Compared with `CCOc1c(Nc2ccc(C#N)cc2)c(=O)c1=O`, `CCCc1ccc(-n2cnc(-c3ccc(C#N)cc3)c2)cc1` is lower in melting point: 218 to 222 °C for the first, 133 °C for the second.

First: CC1(C)Oc2c(N)c(Cl)cc(Cl)c2C1=O
Second: CC(=O)OCC1COc2c(cc(Cl)cc2[N+](=O)[O-])N1 (stereo unspecified)
The melting point of the first is higher: 168 to 170 °C for the first, 76 to 84 °C for the second.

First: CCCS(=O)(=O)Cc1ccc(C(=O)Nc2ccc3cc(CN4CCCC4)cnc3c2C)cc1
Second: O=C1c2cccc3c(N4CCCC4)c([N+](=O)[O-])cc(c23)C(=O)N1O
The melting point of the first is lower: 191 °C for the first, 249 to 252 °C for the second.

`COc1cc(OC)nc(Oc2cccc3c2C(=O)OC3Oc2ccccc2)n1` (stereo unspecified) and `O=C1CCCc2nc3ccccc3c(NCc3cccc(F)c3)c21` cannot be ordered by melting point: 155 to 157 °C for the first, 156 to 157 °C for the second.

First: COc1cc(OC)cc(C2CCCCC2=O)c1 (stereo unspecified)
Second: COc1ccc(Nc2cccc3c2C(=O)N(C2CCC(=O)NC2=O)C3=O)cc1O (stereo unspecified)
The melting point of the first is lower: 61 to 62 °C for the first, 225 to 227 °C for the second.

First: O=C(NNC(=O)c1occ(-c2ccccc2)c1-c1ccccc1)c1ccc(O)c(C(F)(F)F)c1
Second: CCOCC1OC(n2cc(C(F)(F)F)c(=O)n(C(=O)c3ccccc3)c2=O)CC1O (stereo unspecified)
The melting point of the first is lower: 142 to 143 °C for the first, 156 to 157 °C for the second.

`Cc1ccc(-c2nc3c(o2)C(=O)c2ccccc2C3=O)cc1` and `CS(=O)(=O)c1cnc(-c2nn(Cc3ccccc3F)c3ncccc23)nc1N` cannot be ordered by melting point: over 260 °C for the first, 272 °C for the second.

First: O=C(Nc1ccc(-n2nc(C(F)(F)F)cc2C2CC2)nc1)c1ccc2[nH]nnc2c1
Second: CN(Cc1sc2c(=O)c(C(=O)NCc3ccc(Cl)cc3)cn(C)c2c1COCC[Si](C)(C)C)CC(O)c1cnccn1 (stereo unspecified)
The melting point of the first is higher: 236 to 238 °C for the first, 155 to 156 °C for the second.

First: CN(C(=O)C(F)(F)F)C1(C)CN(c2nc3c(cc2F)c(=O)c(C(=O)O)cn3C(C)(C)C)C1
Second: CN(CCC1=C(C#N)C(c2cccc3nonc23)c2c[nH]nc2N1)C(=O)OC(C)(C)C (stereo unspecified)
The melting point of the first is higher: 263 to 265 °C for the first, 240 °C for the second.

First: CCCCCCCC[Si](C)(C)c1cccc(Cl)c1C(=O)NCC
Second: CCCCCCOc1ccc(-c2ccccc2)cc1
The melting point of the first is higher: 62 to 63 °C for the first, 61 to 62 °C for the second.

First: CCCCCCCC(O)CNCCCNCC(O)CCCCCCC (stereo unspecified)
Second: CCOC(=O)OC1CCC2(C)C3=C(CCC2C1)C1=CCC(C(C)CCCC(C)C)C1(C)CC3 (stereo unspecified)
The melting point of the first is higher: 107 to 109 °C for the first, 101 to 106 °C for the second.

First: CC(C)(C=C(Cl)Cl)C(=O)Nc1ccc(Cl)cc1
Second: CCc1nnc(-c2ccc(N)cc2)n1-c1ccc(OC)cc1
The melting point of the first is lower: 131 to 134 °C for the first, 210 °C for the second.

Work on `CC(=O)OC[C@H]1OCC(=NO)[C@@H](OC(C)=O)[C@@H]1OC(C)=O` yielded a melting point of 90 to 92 °C.
